Measurements from ChEMBL document CHEMBL1201862, “PubChem BioAssay data set” (2004).
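Where inhibition never reached the appropriate level, the endpoint shown equals the highest concentration tested. Otherwise, values were interpolated linearly from a five-concentration, 48-hour dose response in 96-well plates. GI50 = concentration required for 50% inhibition of growth.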 Active and inactive are the calls of the source. No stated cut-off is given here; in the data, active = GI50 up to about 1.1 µM and inactive = higher.

Key:
Test in all cases: NCI anticancer screen, dose series, 48 h
OVCAR-8 = tested on: OVCAR-8
T47D = tested on: T47D
M14 = tested on: M14
SK-MEL-28 = tested on: SK-MEL-28
K562 = tested on: K562
EKVX = tested on: EKVX
HCC 2998 = tested on: HCC 2998
HOP-92 = tested on: HOP-92
SF-268 = tested on: SF-268
NCI/ADR-RES = tested on: NCI/ADR-RES
SNB-19 = tested on: SNB-19
DU-145 = tested on: DU-145
SW-620 = tested on: SW-620
786-0 = tested on: 786-0
SF-539 = tested on: SF-539
RXF 393 = tested on: RXF 393
MDA-MB-435 = tested on: MDA-MB-435
UACC-62 = tested on: UACC-62
HT-29 = tested on: HT-29
HCT-116 = tested on: HCT-116
BT-549 = tested on: BT-549
OVCAR-5 = tested on: OVCAR-5
RPMI-8226 = tested on: RPMI-8226
MDA-N = tested on: MDA-N
SK-MEL-5 = tested on: SK-MEL-5
A549 = tested on: A549
TK-10 = tested on: TK-10
MOLT-4 = tested on: MOLT-4
CCRF-CEM = tested on: CCRF-CEM
ACHN = tested on: ACHN
NCI-H226 = tested on: NCI-H226
KM12 = tested on: KM12
Hs-578T = tested on: Hs-578T
MDA-MB-231 = tested on: MDA-MB-231
HOP-62 = tested on: HOP-62
SR = tested on: SR
HL-60 = tested on: HL-60
UO-31 = tested on: UO-31
COLO 205 = tested on: COLO 205
IGROV-1 = tested on: IGROV-1
NCI-H460 = tested on: NCI-H460
NCI-H23 = tested on: NCI-H23
SN12C = tested on: SN12C
OVCAR-3 = tested on: OVCAR-3
CAKI-1 = tested on: CAKI-1
Malme-3M = tested on: Malme-3M
UACC-257 = tested on: UACC-257
OVCAR-4 = tested on: OVCAR-4
SK-OV-3 = tested on: SK-OV-3
PC-3 = tested on: PC-3
SNB-75 = tested on: SNB-75
SK-MEL-2 = tested on: SK-MEL-2
LOX IMVI = tested on: LOX IMVI
HCT-15 = tested on: HCT-15
MCF7 = tested on: MCF7
U-251 = tested on: U-251
SF-295 = tested on: SF-295

Measured: GI50

CCCCNC(=O)OCCN=c1c2ccccc2ccc2ccccc12
> 100 µM: HCT-15
inactive: OVCAR-8 > 100 µM | T47D 75 µM | M14 > 100 µM | SK-MEL-28 > 100 µM | K562 > 100 µM | EKVX > 100 µM | HCC 2998 > 100 µM | HOP-92 > 100 µM | SF-268 > 100 µM | NCI/ADR-RES > 100 µM | SNB-19 > 100 µM | DU-145 > 100 µM | SW-620 > 100 µM | 786-0 > 100 µM | SF-539 > 100 µM | RXF 393 > 100 µM | MDA-MB-435 > 100 µM | UACC-62 > 100 µM | HT-29 > 100 µM | HCT-116 > 100 µM | BT-549 > 100 µM | OVCAR-5 > 100 µM | RPMI-8226 > 100 µM | MDA-N > 100 µM | SK-MEL-5 > 100 µM | A549 > 100 µM | TK-10 > 100 µM | MOLT-4 > 100 µM | CCRF-CEM > 100 µM | ACHN > 100 µM | NCI-H226 > 100 µM | KM12 > 100 µM | Hs-578T > 100 µM | MDA-MB-231 > 100 µM | HOP-62 > 100 µM | SR > 100 µM | HL-60 > 100 µM | UO-31 > 100 µM | COLO 205 > 100 µM | IGROV-1 > 100 µM | NCI-H460 > 100 µM | NCI-H23 > 100 µM | SN12C > 100 µM | OVCAR-3 > 100 µM | CAKI-1 > 100 µM | Malme-3M > 100 µM | UACC-257 > 100 µM | OVCAR-4 > 100 µM | SK-OV-3 > 100 µM | PC-3 > 100 µM | SNB-75 > 100 µM | SK-MEL-2 > 100 µM | LOX IMVI > 100 µM | MCF7 > 100 µM | U-251 > 100 µM | SF-295 > 100 µM
